In ChEMBL document CHEMBL1140636, “Targeting cytochrome P450 enzymes: a new approach in anti-cancer drug development” (Bioorg Med Chem, 2007) one finds IC50 and IC90 data, which are given here for 8 molecules.

Assay [1] concerns the target T1, 1,25-dihydroxyvitamin D(3) 24-hydroxylase, mitochondrial (Homo sapiens, UniProt Q07973).
T1 sequence (Q07973 whole entry): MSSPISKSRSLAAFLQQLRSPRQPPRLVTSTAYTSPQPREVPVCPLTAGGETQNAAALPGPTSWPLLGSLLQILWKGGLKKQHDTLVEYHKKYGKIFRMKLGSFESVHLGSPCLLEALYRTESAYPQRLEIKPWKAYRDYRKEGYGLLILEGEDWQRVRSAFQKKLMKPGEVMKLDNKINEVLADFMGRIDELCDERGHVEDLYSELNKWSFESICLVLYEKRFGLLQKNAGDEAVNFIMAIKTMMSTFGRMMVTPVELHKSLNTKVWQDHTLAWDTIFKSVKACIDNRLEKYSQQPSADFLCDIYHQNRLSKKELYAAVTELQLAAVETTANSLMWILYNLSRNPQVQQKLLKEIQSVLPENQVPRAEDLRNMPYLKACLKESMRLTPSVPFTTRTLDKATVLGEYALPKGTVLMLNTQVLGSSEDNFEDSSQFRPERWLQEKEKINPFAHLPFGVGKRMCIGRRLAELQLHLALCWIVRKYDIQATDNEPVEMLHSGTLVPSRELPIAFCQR
Description: Inhibition of CYP24.

The target in assay [2] is T2, 25-hydroxyvitamin D-1 alpha hydroxylase, mitochondrial (Homo sapiens, UniProt O15528).
T2 sequence (O15528 whole entry): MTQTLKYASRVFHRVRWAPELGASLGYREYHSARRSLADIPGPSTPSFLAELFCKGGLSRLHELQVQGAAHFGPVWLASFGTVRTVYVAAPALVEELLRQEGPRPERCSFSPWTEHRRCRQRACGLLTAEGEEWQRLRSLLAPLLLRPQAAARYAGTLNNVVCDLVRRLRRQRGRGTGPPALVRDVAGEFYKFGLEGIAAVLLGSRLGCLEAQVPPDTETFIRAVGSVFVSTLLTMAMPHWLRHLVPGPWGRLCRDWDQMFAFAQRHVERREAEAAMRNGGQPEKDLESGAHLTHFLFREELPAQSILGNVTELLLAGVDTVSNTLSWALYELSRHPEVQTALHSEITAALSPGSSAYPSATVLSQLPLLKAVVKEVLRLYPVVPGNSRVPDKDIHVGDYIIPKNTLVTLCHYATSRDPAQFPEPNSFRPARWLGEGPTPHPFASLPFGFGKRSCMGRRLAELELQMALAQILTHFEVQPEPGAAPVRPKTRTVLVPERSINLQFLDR
Briefly: Inhibition of CYP27B1.

Assay [3] deals with T3, Sterol 26-hydroxylase, mitochondrial (Homo sapiens, UniProt Q02318).
T3 sequence (Q02318 whole entry): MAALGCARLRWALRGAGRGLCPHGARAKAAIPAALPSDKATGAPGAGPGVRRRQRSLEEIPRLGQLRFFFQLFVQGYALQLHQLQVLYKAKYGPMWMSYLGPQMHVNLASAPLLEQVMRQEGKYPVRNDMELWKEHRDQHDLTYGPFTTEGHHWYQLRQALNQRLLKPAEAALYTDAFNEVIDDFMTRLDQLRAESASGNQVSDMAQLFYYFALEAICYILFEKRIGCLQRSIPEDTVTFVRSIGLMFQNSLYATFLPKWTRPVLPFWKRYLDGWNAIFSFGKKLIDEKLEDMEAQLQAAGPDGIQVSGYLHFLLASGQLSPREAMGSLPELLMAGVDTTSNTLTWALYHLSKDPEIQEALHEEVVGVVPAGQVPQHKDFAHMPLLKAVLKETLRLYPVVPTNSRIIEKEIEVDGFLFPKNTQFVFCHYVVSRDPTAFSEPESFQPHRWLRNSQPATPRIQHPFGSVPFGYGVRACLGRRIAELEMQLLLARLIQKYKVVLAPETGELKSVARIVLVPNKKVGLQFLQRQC
Briefly: Inhibition of CYP27A1.

Assay [4] addresses T4, Cytochrome P450 1B1 (Homo sapiens, UniProt Q16678).
T4 sequence (Q16678 whole entry): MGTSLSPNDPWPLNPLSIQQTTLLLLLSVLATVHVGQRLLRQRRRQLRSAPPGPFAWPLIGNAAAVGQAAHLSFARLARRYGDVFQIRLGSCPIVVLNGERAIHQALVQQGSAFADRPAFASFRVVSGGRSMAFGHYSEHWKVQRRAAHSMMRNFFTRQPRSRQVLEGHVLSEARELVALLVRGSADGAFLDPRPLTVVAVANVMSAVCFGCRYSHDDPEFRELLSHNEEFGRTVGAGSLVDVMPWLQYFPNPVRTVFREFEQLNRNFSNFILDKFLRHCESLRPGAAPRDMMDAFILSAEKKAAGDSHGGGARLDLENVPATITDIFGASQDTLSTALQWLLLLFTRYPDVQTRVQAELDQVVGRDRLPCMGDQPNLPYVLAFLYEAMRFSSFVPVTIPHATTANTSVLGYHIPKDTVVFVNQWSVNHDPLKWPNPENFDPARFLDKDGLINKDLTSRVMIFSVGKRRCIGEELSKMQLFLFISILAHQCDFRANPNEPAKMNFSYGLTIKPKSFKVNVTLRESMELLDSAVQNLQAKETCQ
Briefly: Inhibition of CYP1B1. It is filed as ADME.

For assay [5], the target named is T5, Cytochrome P450 1A1 (Homo sapiens, UniProt P04798).
T5 sequence (P04798 whole entry): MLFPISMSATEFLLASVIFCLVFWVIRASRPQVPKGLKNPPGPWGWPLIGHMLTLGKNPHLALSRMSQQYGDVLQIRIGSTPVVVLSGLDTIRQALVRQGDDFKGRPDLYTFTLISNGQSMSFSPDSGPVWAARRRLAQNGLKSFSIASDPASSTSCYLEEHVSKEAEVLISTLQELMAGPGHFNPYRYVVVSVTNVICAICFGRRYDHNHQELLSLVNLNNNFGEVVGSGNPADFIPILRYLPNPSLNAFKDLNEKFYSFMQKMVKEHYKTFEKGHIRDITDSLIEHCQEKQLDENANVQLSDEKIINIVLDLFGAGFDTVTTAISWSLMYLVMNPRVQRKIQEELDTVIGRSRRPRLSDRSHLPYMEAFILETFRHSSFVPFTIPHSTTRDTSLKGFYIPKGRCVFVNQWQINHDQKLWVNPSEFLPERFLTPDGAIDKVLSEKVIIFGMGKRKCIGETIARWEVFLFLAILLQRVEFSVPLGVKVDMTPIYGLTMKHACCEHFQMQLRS
Briefly: Inhibition of CYP1A1. Type of assay: ADME.

Assay [6] deals with T6, Cytochrome P450 1A2 (Homo sapiens, UniProt P05177).
T6 sequence (P05177 whole entry): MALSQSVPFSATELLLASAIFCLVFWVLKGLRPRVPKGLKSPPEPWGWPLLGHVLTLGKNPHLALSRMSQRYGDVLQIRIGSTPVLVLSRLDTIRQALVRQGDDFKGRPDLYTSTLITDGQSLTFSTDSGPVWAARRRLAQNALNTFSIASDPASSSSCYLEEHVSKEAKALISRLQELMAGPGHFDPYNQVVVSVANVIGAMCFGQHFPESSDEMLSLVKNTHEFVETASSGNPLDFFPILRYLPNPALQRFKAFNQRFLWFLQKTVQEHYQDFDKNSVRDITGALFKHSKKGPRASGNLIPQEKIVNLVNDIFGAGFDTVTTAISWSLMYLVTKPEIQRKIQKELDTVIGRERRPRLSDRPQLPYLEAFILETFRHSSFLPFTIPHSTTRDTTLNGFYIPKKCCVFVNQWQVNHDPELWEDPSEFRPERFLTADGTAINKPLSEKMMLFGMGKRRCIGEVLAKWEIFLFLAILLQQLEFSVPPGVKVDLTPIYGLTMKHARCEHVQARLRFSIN
Briefly: Inhibition of CYP1A2. It is filed as ADME.

Assay [7] addresses T7, Aryl hydrocarbon receptor (Homo sapiens, UniProt P35869).
T7 sequence (P35869 whole entry): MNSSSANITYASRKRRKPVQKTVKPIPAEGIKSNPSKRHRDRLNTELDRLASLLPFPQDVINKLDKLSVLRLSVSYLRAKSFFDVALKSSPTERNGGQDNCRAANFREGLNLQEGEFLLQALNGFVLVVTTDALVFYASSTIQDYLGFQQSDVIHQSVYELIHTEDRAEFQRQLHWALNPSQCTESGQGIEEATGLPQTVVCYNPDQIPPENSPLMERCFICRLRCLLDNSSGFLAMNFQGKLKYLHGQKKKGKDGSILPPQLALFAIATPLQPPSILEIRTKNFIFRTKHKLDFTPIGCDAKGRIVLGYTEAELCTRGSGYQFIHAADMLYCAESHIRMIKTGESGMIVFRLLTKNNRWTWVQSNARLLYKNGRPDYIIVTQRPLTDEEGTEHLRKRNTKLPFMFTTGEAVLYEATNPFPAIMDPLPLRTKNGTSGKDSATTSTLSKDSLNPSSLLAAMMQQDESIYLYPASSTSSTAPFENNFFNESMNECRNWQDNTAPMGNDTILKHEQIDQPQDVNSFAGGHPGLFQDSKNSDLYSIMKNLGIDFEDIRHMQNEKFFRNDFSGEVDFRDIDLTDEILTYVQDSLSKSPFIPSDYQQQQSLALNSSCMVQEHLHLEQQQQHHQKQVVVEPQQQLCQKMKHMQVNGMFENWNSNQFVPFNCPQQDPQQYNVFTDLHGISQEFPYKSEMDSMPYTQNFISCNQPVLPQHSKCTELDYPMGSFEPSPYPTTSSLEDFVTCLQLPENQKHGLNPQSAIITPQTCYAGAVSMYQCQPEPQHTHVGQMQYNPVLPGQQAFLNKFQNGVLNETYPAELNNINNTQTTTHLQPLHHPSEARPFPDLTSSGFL
Description: Inhibition of aryl hydrocarbon receptor.

Assay [8] can be described thus: Inhibition of cigarette smoke condensate-induced growth of immortalized human BEAS-2B cells by soft agar colony assay. Type of assay: functional.
In assay [9] the target is T1, 1,25-dihydroxyvitamin D(3) 24-hydroxylase, mitochondrial. Briefly: Inhibition of CYP24 in human keratinocytes. It is filed as cell-based.
In assay [10] the target is T2, 25-hydroxyvitamin D-1 alpha hydroxylase, mitochondrial. Description: Inhibition of CYP27B1 in human keratinocytes. It is filed as cell-based.
The target of assay [11] is T8, Cytochrome P450 26A1 (Homo sapiens, UniProt O43174).
T8 sequence (O43174 whole entry): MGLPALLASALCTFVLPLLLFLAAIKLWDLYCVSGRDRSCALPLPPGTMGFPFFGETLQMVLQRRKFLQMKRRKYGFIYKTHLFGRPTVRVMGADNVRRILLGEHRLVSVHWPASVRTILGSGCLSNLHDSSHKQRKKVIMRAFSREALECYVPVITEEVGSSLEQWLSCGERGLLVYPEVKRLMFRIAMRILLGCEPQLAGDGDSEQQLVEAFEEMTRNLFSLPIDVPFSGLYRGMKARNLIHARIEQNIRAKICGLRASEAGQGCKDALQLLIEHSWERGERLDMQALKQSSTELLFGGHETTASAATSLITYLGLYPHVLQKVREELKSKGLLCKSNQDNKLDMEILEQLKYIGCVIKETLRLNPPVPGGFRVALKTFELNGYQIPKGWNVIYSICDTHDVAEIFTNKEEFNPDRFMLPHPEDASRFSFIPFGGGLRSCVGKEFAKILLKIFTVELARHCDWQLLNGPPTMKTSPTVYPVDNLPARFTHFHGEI
Description: Inhibition of CYP26.

Turning to `C=C1/C(=C\C=C2/CCC[C@]3(C)C([C@H](C)CC[S+](=N)([O-])c4ccccc4)=CCC23)C[C@@H](O)C[C@@H]1O` (stereo partly drawn), the IC50 was 7.4 nM in assay [1], 554 nM in assay [2] and over 1000 nM in assay [3].

With `COc1cc(/C=C\c2cccs2)cc(OC)c1`, the IC50 in assay [4] worked out at 2 nM; in [5], 61 nM; in assay [6], 11 nM.

`Clc1ccc(-c2cc(Cl)c(Cl)c(Cl)c2)cc1Cl` [POLYCHLORINATED BIPHENYL 126] displayed an IC50 in assay [4] of 11 nM.

As for `O=c1c(O)c(-c2ccc(O)cc2)oc2cc(O)cc(O)c12` [KAEMPFEROL], in [7], the midpoint of inhibition, the IC50, lay at 28 nM. For the same molecule, the 90% effect concentration (IC90) in assay [8] was 10000 nM.

For `O=C(NCC(c1ccccc1)n1ccnc1)c1ccc(-c2ccc(Cl)cc2)cc1` (stereo not drawn), the IC50 in assay [9] was determined as 15 nM; in [10], 616 nM.

With `CC#Cc1ccc2c(ccc3ccccc32)c1`, the IC50 in assay [4] is 30 nM; in [5], 150 nM; in assay [6], 60 nM.

Take `c1cc2ccc3cccc4ccc(c1)c2c34` [PYRENE]: the IC50 in assay [4] turned out to be 2 nM; in [5] it was 41 nM; in [6] it was 7 nM.

`Clc1cccc(C(c2ccc3nc[nH]c3c2)N2C=NCC2)c1` (stereo not drawn) had an IC50 in [11] of 2200 nM.
